Ki data for 23 compounds are collected here from US10100022B2, “Sphingosine kinase inhibitors” (University of Virginia Patent Foundation, priority 2014, dated 2018).

What is called pKi is the negative decadic logarithm of the Ki, by convention in mol/L.

Experiment [1] addresses T1, human sphingosine kinase type 1 (hSPHK1) (Homo sapiens, UniProt Q9NYA1).
T1 construct: made in house; host or cells: Sf9 insect cells (baculovirus)
Put plainly: Sphingosine kinase assay, recombinant human SPHK1 ([32P]S1P product, scintillation counting). Type of experiment: biochemical. Particulars: read-out: activity hSPHK1 (range estimate of KI). The procedure:
(§1) Recombinant baculovirus encoding human sphingosine kinase type 1 (SPHK1) was used to infect Sf9 insect cells and after 2-5 days, cleared lysates were prepared and used without further purification. Human SPHK2, which was partially purified from baculovirus-infected Sf9 cell lysates, was purchased from a commercial source. Sphingosine kinase assays were performed using standard protocols. Product [^32P]S1P was recovered by binding to cation exchange paper and quantified by scintillation counting.

For experiment [2], the target named is T2, human sphingosine kinase type 2 (hSPHK2) (Homo sapiens, UniProt Q9NRA0).
T2 construct: purchased; host or cells: Sf9 insect cells (baculovirus)
T2 sequence (Q9NRA0 1-654): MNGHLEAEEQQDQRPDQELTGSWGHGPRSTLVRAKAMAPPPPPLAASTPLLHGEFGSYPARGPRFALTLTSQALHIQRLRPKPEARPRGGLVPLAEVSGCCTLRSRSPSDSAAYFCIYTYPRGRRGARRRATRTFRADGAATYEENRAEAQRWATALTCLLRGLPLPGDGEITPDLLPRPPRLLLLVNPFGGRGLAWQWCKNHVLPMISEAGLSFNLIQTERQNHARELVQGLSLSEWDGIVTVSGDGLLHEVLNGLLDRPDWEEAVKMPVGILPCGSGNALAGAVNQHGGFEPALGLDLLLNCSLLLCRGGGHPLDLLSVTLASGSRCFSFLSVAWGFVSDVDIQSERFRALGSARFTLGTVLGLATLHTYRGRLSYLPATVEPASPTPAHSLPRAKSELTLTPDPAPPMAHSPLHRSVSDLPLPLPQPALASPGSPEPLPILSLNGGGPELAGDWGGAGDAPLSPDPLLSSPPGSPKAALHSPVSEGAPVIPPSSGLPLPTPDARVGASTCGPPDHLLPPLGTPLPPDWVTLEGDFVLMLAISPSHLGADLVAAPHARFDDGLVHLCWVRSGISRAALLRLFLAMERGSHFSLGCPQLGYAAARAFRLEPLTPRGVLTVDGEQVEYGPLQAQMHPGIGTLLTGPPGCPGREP
Put plainly: Sphingosine kinase assay, recombinant human SPHK2 ([32P]S1P product, scintillation counting). The experiment is classed as biochemical. Particulars: read-out: activity hSPHK2 (range estimate of KI). The procedure:
as §1

pKi: −log10 of the molar value. Counter-ions that a name gives are not always drawn.

T1 sequence (Q9NYA1 whole entry): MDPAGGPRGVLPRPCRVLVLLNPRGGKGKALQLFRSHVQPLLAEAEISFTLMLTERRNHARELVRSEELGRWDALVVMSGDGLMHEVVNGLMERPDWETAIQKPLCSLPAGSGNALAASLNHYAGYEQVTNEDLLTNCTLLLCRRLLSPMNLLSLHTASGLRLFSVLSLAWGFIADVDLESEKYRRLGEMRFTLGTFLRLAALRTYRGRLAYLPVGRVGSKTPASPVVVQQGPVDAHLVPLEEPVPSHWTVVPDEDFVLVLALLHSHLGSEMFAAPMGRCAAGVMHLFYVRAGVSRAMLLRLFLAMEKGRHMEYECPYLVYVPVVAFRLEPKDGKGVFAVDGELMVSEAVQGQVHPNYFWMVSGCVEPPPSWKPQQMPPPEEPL

`CC(C)COc1ccc2cc(-c3noc([C@@H]4[C@@H](O)CCN4C(=N)N)n3)ccc2c1` [Compound 15A, Amino((2S,3S)-3-hydroxy-2-(3-(6-isobutoxynaphthalen-2-yl)-1,2,4-oxadiazol-5-yl)pyrrolidin-1-yl)methaniminium chloride]: the pKi in experiment [1] is 5.00 to 6.00; in experiment [2], less than 5.00.

For the compound `CCCCCCOc1ccc2cc(-c3noc([C@@H]4CCCN4C(=N)N)n3)ccc2c1` [Compound 16A, (S)-amino(2-(3-(6-(hexyloxy)naphthalen-2-yl)-1,2,4-oxadiazol-5-yl)pyrrolidin-1-yl)methaniminium chloride], the pKi in experiment [1] and in experiment [2] was less than 5.00 throughout.

In the case of `CCCCCCCCCCn1ccc2ccc(-c3noc([C@@H]4CCCN4C(=N)N)n3)cc21` [Compound 18A, (S)-amino(2-(3-(1-decyl-1H-indol-6-yl)-1,2,4-oxadiazol-5-yl)pyrrolidin-1-yl)methaniminium chloride], the negative logarithm of the Ki (pKi) in experiment [1] is less than 5.00; in experiment [2], 5.00 to 6.00.

`CCCCCCCCOc1ccc(-c2noc([C@@H]3CC(F)(F)CN3C(=N)N)n2)cc1C(F)(F)F` [Compound 19A, (S)-amino(4,4-difluoro-2-(3-(4-(octyloxy)-3-(trifluoromethyl)phenyl)-1,2,4-oxadiazol-5-yl)pyrrolidin-1-yl)methaniminium chloride]: the pKi in experiment [1] and in experiment [2] was less than 5.00 each time.

`CCCCCCCCOc1ccc(-c2noc([C@@H]3[C@@H](CO)CCN3C(=N)N)n2)cc1C(F)(F)F` [Compound 20a, 2,2,2-trifluoroacetate]: the pKi in experiment [1] and in experiment [2] was greater than 6.00 throughout.

Regarding `CCCCCCCCOc1ccc(-c2noc([C@@H]3C=CCN3C(=N)N)n2)cc1C(F)(F)F` [Compound 21A, (S)-amino(2-(3-(4-(octyloxy)-3-(trifluoromethyl)phenyl)-1,2,4-oxadiazol-5-yl)-2,5-dihydro-1H-pyrrol-1-yl)methaniminium chloride], the pKi in experiment [1] was less than 5.00; in experiment [2], greater than 6.00.

Consider `N=C(N)N1CC[C@H](O)[C@H]1c1nc(-c2ccc(OCCCc3ccc(C(F)(F)F)cc3)c(C(F)(F)F)c2)no1` [Compound 22A, amino((2S,3S)-3-hydroxy-2-(3-(3-(trifluoromethyl)-4-(3-(4-(trifluoromethyl)phenyl)propoxy)phenyl)-1,2,4-oxadiazol-5-yl)pyrrolidin-1-yl)methaniminium chloride], for which the results for the pKi in experiment [1] and in experiment [2] were 5.00 to 6.00 and greater than 6.00, respectively.

Consider `N=C(N)N1CC[C@H](O)[C@H]1c1nc(-c2ccc(OCCc3ccc(C(F)(F)F)cc3)c(C(F)(F)F)c2)no1` [Compound 23A, amino((2S,3S)-3-hydroxy-2-(3-(3-(trifluoromethyl)-4-(4-(trifluoromethyl)phenethoxy)phenyl)-1,2,4-oxadiazol-5-yl)pyrrolidin-1-yl)methaniminium chloride], for which the pKi in experiment [1] was 5.00 to 6.00; in experiment [2], greater than 6.00.

For the compound `N=C(N)N1CC[C@H](O)[C@H]1c1nc(-c2ccc(OCc3ccc(C(F)(F)F)cc3)c(C(F)(F)F)c2)no1` [Compound 24A, amino((2S,3S)-3-hydroxy-2-(3-(3-(trifluoromethyl)-4-((4-(trifluoromethyl)benzyl)oxy)phenyl)-1,2,4-oxadiazol-5-yl)pyrrolidin-1-yl)methaniminium chloride], the pKi in experiment [1] is 5.00 to 6.00; in experiment [2], greater than 6.00.

Turning to `N=C(N)N1CC[C@H](O)[C@H]1c1nc(-c2ccc(OCCCCc3ccc(C(F)(F)F)cc3)c(C(F)(F)F)c2)no1` [Compound 25A, amino((2S,3S)-3-hydroxy-2-(3-(3-(trifluoromethyl)-4-(4-(4-(trifluoromethyl)phenyl)butoxy)phenyl)-1,2,4-oxadiazol-5-yl)pyrrolidin-1-yl)methaniminium chloride], the pKi in experiment [1] and in experiment [2] was greater than 6.00 throughout.

As to `N=C(N)N1CCC[C@H]1c1nc(-c2ccc(OCCCCc3ccc(C(F)(F)F)cc3)c(C(F)(F)F)c2)no1` [Compound 26A, (S)-amino(2-(3-(3-(trifluoromethyl)-4-(4-(4-(trifluoromethyl)phenyl)butoxy)phenyl)-1,2,4-oxadiazol-5-yl)pyrrolidin-1-yl)methaniminium chloride], the results for the pKi in experiment [1] and in experiment [2] were less than 5.00 and greater than 6.00, respectively.

In the case of `N=C(N)N1CC[C@H](O)[C@H]1c1nc(-c2ccc(OCCCc3ccc4c(c3)OCCO4)c(C(F)(F)F)c2)no1` [Compound 27A], the pKi in experiment [1] was less than 5.00; in experiment [2], 5.00 to 6.00.

As to `N=C(N)N1CC[C@H](O)[C@H]1c1nc(-c2ccc(OCCCc3ccc(Cl)c(Cl)c3)c(C(F)(F)F)c2)no1` [Compound 28A], the pKi in experiment [1] was 5.00 to 6.00; in experiment [2], greater than 6.00.

As for `N=C(N)N1CCC[C@H]1c1nc(-c2ccc(OCCCc3ccc4c(c3)OCCO4)c(C(F)(F)F)c2)no1` [Compound 29A, (S)-amino(2-(3-(4-(3-(2,3-dihydrobenzo[b][1,4]dioxin-6-yl)propoxy)-3-(trifluoromethyl)phenyl)-1,2,4-oxadiazol-5-yl)pyrrolidin-1-yl)methaniminium chloride], the pKi in experiment [1] and in experiment [2] was less than 5.00 throughout.

Take `N=C(N)N1CCC[C@H]1c1nc(-c2ccc(OCCCc3ccc(Cl)c(Cl)c3)c(C(F)(F)F)c2)no1` [Compound 30A, (S)-amino(2-(3-(4-(3-(3,4-dichlorophenyl)propoxy)-3-(trifluoromethyl)phenyl)-1,2,4-oxadiazol-5-yl)pyrrolidin-1-yl)methaniminium chloride]: the pKi was less than 5.00 in experiment [1] and greater than 6.00 in experiment [2].

In the case of `N=C(N)N1C[C@H](O)C[C@H]1c1nc(-c2ccc(OCCCc3ccc(Cl)c(Cl)c3)c(C(F)(F)F)c2)no1` [Compound 31A, amino((2S,4R)-2-(3-(4-(3-(3,4-dichlorophenyl)propoxy)-3-(trifluoromethyl)phenyl)-1,2,4-oxadiazol-5-yl)-4-hydroxypyrrolidin-1-yl)methaniminium chloride], the pKi is less than 5.00 in experiment [1] and greater than 6.00 in experiment [2].

On to `N=C(N)N1CCC[C@H]1c1nc(-c2ccc(OCCCc3ccc(C(F)(F)F)cc3)c(C(F)(F)F)c2)no1` [Compound 32A, (S)-amino(2-(3-(3-(trifluoromethyl)-4-(3-(4-(trifluoromethyl)phenyl)propoxy)phenyl)-1,2,4-oxadiazol-5-yl)pyrrolidin-1-yl)methaniminium chloride], for which the pKi in experiment [1] is less than 5.00; in experiment [2] it was greater than 6.00.

For `N=C(N)N1C[C@H](O)C[C@H]1c1nc(-c2ccc(OCCCc3ccc(C(F)(F)F)cc3)c(C(F)(F)F)c2)no1` [Compound 33A, amino((2S,4R)-4-hydroxy-2-(3-(3-(trifluoromethyl)-4-(3-(4-(trifluoromethyl)phenyl)propoxy)phenyl)-1,2,4-oxadiazol-5-yl)pyrrolidin-1-yl)methaniminium chloride], the pKi in experiment [1] is less than 5.00; in experiment [2], greater than 6.00.

For `CCCc1ccc(CCc2ccc(-c3noc([C@@H]4[C@@H](O)CCN4C(=N)N)n3)cc2C(F)(F)F)cc1` [Compound 34A, (2S,3S)-3-hydroxy-2-(3-(4-(4-propylphenethyl)-3-(trifluoromethyl)phenyl)-1,2,4-oxadiazol-5-yl)pyrrolidine-1-carboximidamide hydrochloride], the figures for the pKi in experiment [1] and in experiment [2] were 5.00 to 6.00 and greater than 6.00, respectively.

In the case of `CCCc1ccc(CCc2ccc(-c3noc([C@@H]4CCCN4C(=N)N)n3)cc2C(F)(F)F)cc1` [Compound 35A, (S)-2-(3-(4-(4-propylphenethyl)-3-(trifluoromethyl)phenyl)-1,2,4-oxadiazol-5-yl)pyrrolidine-1-carboximidamide hydrochloride], the figures for the pKi in experiment [1] and in experiment [2] were less than 5.00 and greater than 6.00, respectively.

With `CCCCc1ccc(CCc2ccc(-c3noc([C@@H]4CCCN4C(=N)N)n3)cc2C(F)(F)F)cc1` [Compound 36A, (S)-2-(3-(4-(4-butylphenethyl)-3-(trifluoromethyl)phenyl)-1,2,4-oxadiazol-5-yl)pyrrolidine-1-carboximidamide hydrochloride], the pKi is less than 5.00 in experiment [1] and greater than 6.00 in experiment [2].

Take `CCCCc1ccc(CCc2ccc(-c3noc([C@@H]4[C@@H](O)CCN4C(=N)N)n3)cc2C(F)(F)F)cc1` [Compound 37A, (2S,3S)-2-(3-(4-(4-butylphenethyl)-3-(trifluoromethyl)phenyl)-1,2,4-oxadiazol-5-yl)-3-hydroxypyrrolidine-1-carboximidamide hydrochloride]: the pKi is 5.00 to 6.00 in experiment [1] and greater than 6.00 in experiment [2].

For `N=C(N)N1CCC[C@H]1c1nc(-c2ccc(CCC3CC3)c(C(F)(F)F)c2)no1` [Compound 38A, (S)-2-(3-(4-(2-cyclopropylethyl)-3-(trifluoromethyl)phenyl)-1,2,4-oxadiazol-5-yl)pyrrolidine-1-carboximidamide hydrochloride], the pKi in experiment [1] is less than 5.00; in experiment [2], 5.00 to 6.00.
